Results published in ChEMBL document CHEMBL2010741, “Synthesis and evaluation of a new series of 1'-cyclobutyl-6-(4-piperidyloxy)spiro[benzopyran-2,4'-piperidine] derivatives as high affinity and selective histamine-3 receptor (H3R) antagonists” (Bioorg Med Chem Lett, 2012).

Columns and labels:
Cytochrome P450 2C9 = Cytochrome P450 2C9 (Homo sapiens, UniProt P11712); test: Inhibition of CYP2C9; format: ADME
Histamine H3 receptor [1] = molecular target: Histamine H3 receptor (Rattus norvegicus, UniProt Q9QYN8); test: Displacement of [3H]N-alpha-methylhistamine from rat cloned histamine H3 receptor expressed in CHO cells; format: cell-based
Histamine H3 receptor (Rattus norvegicus, UniProt Q9QYN8), sequence (Q9QYN8 whole entry): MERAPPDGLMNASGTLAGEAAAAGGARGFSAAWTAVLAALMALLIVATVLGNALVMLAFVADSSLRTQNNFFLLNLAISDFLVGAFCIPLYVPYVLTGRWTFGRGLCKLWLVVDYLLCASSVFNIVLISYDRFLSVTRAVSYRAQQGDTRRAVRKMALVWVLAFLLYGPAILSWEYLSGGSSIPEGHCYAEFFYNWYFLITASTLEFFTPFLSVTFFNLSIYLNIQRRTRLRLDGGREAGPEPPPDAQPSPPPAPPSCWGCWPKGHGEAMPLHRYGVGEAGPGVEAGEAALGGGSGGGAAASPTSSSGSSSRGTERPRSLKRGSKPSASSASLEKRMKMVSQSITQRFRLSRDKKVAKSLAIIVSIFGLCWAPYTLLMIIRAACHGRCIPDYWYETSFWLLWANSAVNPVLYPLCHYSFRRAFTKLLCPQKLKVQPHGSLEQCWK

[2] = Half life in mouse liver microsomes; format: ADME, Microsome
Histamine H3 receptor [3] = molecular target: T1, Histamine H3 receptor (Homo sapiens, UniProt Q9Y5N1); test: Displacement of [3H]-N-alpha-methylhistamine from human cloned histamine H3 receptor expressed in CHO cells; format: cell-based
T1 sequence (Q9Y5N1 whole entry): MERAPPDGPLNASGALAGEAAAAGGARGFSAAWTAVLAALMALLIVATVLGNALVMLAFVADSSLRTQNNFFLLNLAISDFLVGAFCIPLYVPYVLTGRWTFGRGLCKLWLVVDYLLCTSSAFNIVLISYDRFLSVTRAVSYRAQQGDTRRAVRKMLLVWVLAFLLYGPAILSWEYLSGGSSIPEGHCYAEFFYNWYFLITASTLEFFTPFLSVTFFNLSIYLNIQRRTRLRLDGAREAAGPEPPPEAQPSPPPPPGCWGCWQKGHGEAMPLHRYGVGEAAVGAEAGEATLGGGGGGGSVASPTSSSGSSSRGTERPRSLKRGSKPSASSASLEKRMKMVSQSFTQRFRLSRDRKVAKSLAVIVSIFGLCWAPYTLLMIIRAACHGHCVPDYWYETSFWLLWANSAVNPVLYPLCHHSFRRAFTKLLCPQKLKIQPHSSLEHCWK

Cytochrome P450 2C19 = Cytochrome P450 2C19 (Homo sapiens, UniProt P33261); test: Inhibition of CYP2C19; format: ADME
Cytochrome P450 2C19, sequence (P33261 whole entry): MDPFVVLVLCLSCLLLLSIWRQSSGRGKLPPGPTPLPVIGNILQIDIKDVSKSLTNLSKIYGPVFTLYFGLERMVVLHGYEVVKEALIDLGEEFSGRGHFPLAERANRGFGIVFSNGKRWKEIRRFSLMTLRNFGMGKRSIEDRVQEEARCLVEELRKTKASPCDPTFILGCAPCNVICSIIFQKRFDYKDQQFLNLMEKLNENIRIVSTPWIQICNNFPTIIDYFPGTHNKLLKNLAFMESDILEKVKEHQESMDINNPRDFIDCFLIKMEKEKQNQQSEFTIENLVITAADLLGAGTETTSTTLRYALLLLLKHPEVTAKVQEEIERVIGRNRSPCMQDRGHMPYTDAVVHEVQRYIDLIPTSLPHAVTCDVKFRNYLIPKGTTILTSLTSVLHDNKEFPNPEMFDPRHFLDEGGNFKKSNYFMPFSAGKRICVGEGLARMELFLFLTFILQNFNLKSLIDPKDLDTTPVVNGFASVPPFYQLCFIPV

[4] = AUC (infinity) in rat at 5 mg/kg, po; format: ADME, organism-based; parameters: time infinity, dose 5 mg/kg, route oral; settings: plasma
[5] = Half life in human liver microsomes; format: ADME, Microsome
[6] = Volume of distribution in rat at 1 mg/kg, iv; format: ADME, organism-based; parameters: dose 1 mg/kg, route intravenous; settings: in vivo
[7] = Clearance in rat at 1 mg/kg, iv; format: ADME, organism-based; parameters: dose 1 mg/kg, route intravenous; settings: in vivo
[8] = Ratio of drug level in brain to plasma of rat at 10 mg/kg, ip after 1 hr; format: ADME, organism-based; parameters: dose 10 mg/kg, route intraperitoneal; settings: read-out: BPR
[9] = Half life in rat liver microsomes; format: ADME, Microsome
[10] = Half life in rat at 1 mg/kg, iv; format: ADME, organism-based; parameters: dose 1 mg/kg, route intravenous; settings: in vivo
Cytochrome P450 3A4 = Cytochrome P450 3A4 (Homo sapiens, UniProt P08684); test: Inhibition of CYP3A4; format: ADME
Cytochrome P450 3A4, sequence (P08684 whole entry): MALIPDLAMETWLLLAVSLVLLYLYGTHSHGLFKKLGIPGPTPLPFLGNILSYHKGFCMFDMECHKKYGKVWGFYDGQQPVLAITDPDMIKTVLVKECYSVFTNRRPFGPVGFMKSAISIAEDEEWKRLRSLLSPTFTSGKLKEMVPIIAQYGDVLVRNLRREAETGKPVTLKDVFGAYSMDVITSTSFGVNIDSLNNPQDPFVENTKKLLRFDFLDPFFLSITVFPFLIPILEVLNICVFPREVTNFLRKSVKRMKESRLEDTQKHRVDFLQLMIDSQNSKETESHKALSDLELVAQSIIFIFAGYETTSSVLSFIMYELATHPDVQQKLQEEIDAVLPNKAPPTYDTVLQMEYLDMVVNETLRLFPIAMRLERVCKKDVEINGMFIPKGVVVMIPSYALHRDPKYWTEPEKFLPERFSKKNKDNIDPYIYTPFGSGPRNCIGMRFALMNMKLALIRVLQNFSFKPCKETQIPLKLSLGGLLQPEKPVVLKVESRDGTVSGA

[11] = Aqueous solubility of the compound at pH 7.4; format: physicochemical; settings: buffer
Cytochrome P450 1A2 = molecular target: T2, Cytochrome P450 1A2 (Homo sapiens, UniProt P05177); test: Inhibition of CYP1A2; format: ADME
T2 sequence (P05177 whole entry): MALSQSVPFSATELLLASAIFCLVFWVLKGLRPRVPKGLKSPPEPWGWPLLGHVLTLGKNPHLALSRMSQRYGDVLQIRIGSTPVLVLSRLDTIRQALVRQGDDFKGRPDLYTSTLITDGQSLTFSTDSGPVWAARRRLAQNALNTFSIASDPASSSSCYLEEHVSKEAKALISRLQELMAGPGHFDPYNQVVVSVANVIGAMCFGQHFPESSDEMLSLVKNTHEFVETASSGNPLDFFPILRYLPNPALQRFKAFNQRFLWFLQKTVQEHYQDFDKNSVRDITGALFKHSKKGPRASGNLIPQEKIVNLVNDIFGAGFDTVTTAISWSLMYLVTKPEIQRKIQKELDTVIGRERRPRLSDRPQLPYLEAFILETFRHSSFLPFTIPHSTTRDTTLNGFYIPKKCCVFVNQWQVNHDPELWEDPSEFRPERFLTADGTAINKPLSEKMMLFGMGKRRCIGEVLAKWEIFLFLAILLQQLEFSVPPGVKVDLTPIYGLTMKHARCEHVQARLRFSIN

[12] = Cmax in rat at 5 mg/kg, po; format: ADME, organism-based; parameters: dose 5 mg/kg, route oral; settings: in vivo
Cytochrome P450 2D6 = Cytochrome P450 2D6 (Homo sapiens, UniProt P10635); test: Inhibition of CYP2D6; format: ADME
Cytochrome P450 2D6, sequence (P10635 whole entry): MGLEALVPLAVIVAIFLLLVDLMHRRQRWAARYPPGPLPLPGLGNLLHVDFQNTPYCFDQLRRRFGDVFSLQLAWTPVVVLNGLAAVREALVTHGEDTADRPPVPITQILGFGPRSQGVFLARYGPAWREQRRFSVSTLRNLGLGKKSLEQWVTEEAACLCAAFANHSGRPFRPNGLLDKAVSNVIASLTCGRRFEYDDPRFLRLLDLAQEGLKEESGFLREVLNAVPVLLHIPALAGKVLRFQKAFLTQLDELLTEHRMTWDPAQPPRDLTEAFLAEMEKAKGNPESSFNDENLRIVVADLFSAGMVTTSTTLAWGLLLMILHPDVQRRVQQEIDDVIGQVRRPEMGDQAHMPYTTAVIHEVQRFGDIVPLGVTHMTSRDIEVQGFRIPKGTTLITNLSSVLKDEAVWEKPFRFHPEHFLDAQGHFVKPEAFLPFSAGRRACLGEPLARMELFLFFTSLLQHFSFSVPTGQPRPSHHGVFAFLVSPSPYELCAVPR

[13] = Oral bioavailability in rat at 5 mg/kg; format: ADME, organism-based; settings: in vivo
[14] = Half life in dog liver microsomes; format: ADME, Canis lupus familiaris, Microsome
[15] = molecular target: Histamine H2 receptor (Homo sapiens) (UniProt P25021); test: Inhibition of human H2 receptor at 10 uM
Histamine H2 receptor (Homo sapiens), sequence (P25021 whole entry): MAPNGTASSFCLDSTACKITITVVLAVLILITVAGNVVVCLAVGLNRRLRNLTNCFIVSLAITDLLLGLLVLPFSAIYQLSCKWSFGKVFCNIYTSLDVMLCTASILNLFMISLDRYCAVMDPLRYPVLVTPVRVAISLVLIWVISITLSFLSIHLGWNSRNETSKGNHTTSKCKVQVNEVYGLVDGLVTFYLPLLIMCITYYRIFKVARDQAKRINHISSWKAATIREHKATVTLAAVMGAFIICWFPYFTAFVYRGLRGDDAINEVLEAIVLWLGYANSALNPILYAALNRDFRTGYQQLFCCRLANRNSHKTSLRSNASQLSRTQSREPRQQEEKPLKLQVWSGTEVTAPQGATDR

[16] = molecular target: Histamine H4 receptor (Homo sapiens) (UniProt Q9H3N8); test: Inhibition of human H4 receptor at 10 uM
[17] = molecular target: Histamine H1 receptor (Homo sapiens) (UniProt P35367); test: Inhibition of human H1 receptor at 10 uM
Histamine H1 receptor (Homo sapiens), sequence (P35367 whole entry): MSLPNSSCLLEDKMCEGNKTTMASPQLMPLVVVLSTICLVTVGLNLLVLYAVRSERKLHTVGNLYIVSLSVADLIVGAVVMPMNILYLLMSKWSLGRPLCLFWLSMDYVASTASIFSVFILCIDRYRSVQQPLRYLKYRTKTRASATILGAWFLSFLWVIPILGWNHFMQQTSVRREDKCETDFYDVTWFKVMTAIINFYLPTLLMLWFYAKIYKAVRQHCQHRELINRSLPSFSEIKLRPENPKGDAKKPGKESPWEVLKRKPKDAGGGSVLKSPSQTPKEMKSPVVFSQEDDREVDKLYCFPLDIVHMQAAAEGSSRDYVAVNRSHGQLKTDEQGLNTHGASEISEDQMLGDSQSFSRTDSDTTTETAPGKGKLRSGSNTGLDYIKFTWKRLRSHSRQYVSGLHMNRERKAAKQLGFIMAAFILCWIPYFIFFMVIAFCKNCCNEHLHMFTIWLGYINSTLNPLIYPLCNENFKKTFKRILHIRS

Histamine H3 receptor [18] = molecular target: T1, Histamine H3 receptor; settings: CHO, 10 uM
[19] = molecular target: Histamine H3 receptor (Rattus norvegicus) (UniProt Q9QYN8); settings: CHO, 10 uM
Histamine H3 receptor (Rattus norvegicus), sequence (Q9QYN8 whole entry): as the sequence (Q9QYN8 whole entry) above

Cytochrome P450 2C9, sequence (P11712 whole entry): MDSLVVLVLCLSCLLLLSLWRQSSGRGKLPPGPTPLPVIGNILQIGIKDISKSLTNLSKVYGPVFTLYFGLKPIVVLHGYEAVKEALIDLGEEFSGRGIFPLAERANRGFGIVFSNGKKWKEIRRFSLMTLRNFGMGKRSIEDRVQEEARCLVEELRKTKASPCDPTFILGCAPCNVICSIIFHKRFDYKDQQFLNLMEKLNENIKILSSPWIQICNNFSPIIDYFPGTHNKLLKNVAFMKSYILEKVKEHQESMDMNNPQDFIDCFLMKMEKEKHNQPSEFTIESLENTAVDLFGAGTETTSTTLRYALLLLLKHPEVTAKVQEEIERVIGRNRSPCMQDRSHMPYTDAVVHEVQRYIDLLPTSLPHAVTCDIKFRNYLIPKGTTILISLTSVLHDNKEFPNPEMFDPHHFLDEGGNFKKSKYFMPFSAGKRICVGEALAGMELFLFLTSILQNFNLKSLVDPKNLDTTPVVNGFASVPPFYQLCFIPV

IC50 (Cytochrome P450 2C9) [nM] | Ki (Histamine H3 receptor [1]) [nM] | half-life [2] [min] | Ki (Histamine H3 receptor [3]) [nM] | IC50 (Cytochrome P450 2C19) [nM] | AUC(0-inf) [4] [ng·h/mL] | half-life [5] [min] | Vd [6] [L/kg] | clearance [7] [mL/min/kg] | Kp at 1 h [8] | half-life [9] [min] | half-life [10] [min] | IC50 (Cytochrome P450 3A4) [nM] | solubility [11] [µg/mL] | IC50 (Cytochrome P450 1A2) [nM] | Cmax [12] [ng/mL] | IC50 (Cytochrome P450 2D6) [nM] | bioavailability [13] [%] | half-life [14] [min] | SMILES | further results
– | 24 | – | 7 | – | – | – | – | – | – | – | – | – | – | – | – | – | – | – | CCS(=O)(=O)N1CCC(Oc2ccc3c(c2)CCC2(CCN(C4CCC4)CC2)O3)CC1 | –
– | 40 | – | 47 | – | – | – | – | – | – | – | – | – | – | – | – | – | – | – | CC(C)(C)OC(=O)N1CCC(Oc2ccc3c(c2)CCC2(CCN(C4CCC4)CC2)O3)CC1 | –
> 30000 | 16 | > 40 | 6 | > 30000 | 359 | > 40 | 2.7 | 20 | 2.3 | > 40 | 96 | > 30000 | > 100 | > 30000 | 71 | > 30000 | 8 | > 40 | O=C(C1CC1)N1CCC(Oc2ccc3c(c2)CCC2(CCN(C4CCC4)CC2)O3)CC1 | –
– | > 3000 | – | > 3000 | – | – | – | – | – | – | – | – | – | – | – | – | – | – | – | Oc1ccc2c(c1)CCC1(CCN(C3CCC3)CC1)O2 | inhibition (Histamine H3 receptor [18]): 50%; inhibition [19]: 50%
– | 6 | – | 3 | – | – | – | – | – | – | – | – | – | – | – | – | – | – | – | c1cc2c(cc1OC1CCNCC1)CCC1(CCN(C3CCC3)CC1)O2 | –

More lines, now with the values behind:

SMILES | IC50 (Cytochrome P450 2C9) [nM] | Ki (Histamine H3 receptor [1]) [nM] | half-life [2] [min] | Ki (Histamine H3 receptor [3]) [nM] | IC50 (Cytochrome P450 2C19) [nM] | AUC(0-inf) [4] [ng·h/mL] | half-life [5] [min] | Vd [6] [L/kg] | clearance [7] [mL/min/kg] | Kp at 1 h [8] | half-life [9] [min] | half-life [10] [min] | IC50 (Cytochrome P450 3A4) [nM] | solubility [11] [µg/mL] | IC50 (Cytochrome P450 1A2) [nM] | Cmax [12] [ng/mL] | IC50 (Cytochrome P450 2D6) [nM] | bioavailability [13] [%] | half-life [14] [min] | further results
O=S(=O)(C1CC1)N1CCC(Oc2ccc3c(c2)CCC2(CCN(C4CCC4)CC2)O3)CC1 | > 30000 | 18 | > 40 | 9 | > 30000 | 435 | > 40 | 1.6 | 10 | 2 | > 40 | 108 | > 30000 | > 100 | > 30000 | 76 | > 30000 | 5 | > 40 | –
CC(=O)N1CCC(Oc2ccc3c(c2)CCC2(CCN(C4CCC4)CC2)O3)CC1 | > 30000 | 10 | > 40 | 4 | > 30000 | – | > 40 | – | – | – | > 40 | – | > 30000 | – | > 30000 | – | > 30000 | – | > 40 | –
CS(=O)(=O)N1CCC(Oc2ccc3c(c2)CCC2(CCN(C4CCC4)CC2)O3)CC1 | > 30000 | 17 | > 40 | 7 | > 30000 | 392 | > 40 | 0.5 | 9 | 1.5 | > 40 | 36 | > 30000 | > 100 | > 30000 | 83 | 18000 | 4 | > 40 | inhibition [15]: < 20%; inhibition [16]: < 20%; inhibition [17]: < 20%
CC(C)S(=O)(=O)N1CCC(Oc2ccc3c(c2)CCC2(CCN(C4CCC4)CC2)O3)CC1 | – | 27 | – | 7 | – | – | – | – | – | – | – | – | – | – | – | – | – | – | – | –
CC(C)C(=O)N1CCC(Oc2ccc3c(c2)CCC2(CCN(C4CCC4)CC2)O3)CC1 | > 30000 | 6 | > 40 | 2 | > 30000 | 410 | > 40 | 1.9 | 18 | 2.3 | > 40 | 66 | > 30000 | > 100 | > 30000 | 80 | > 30000 | 9 | > 40 | –
